Source: PubChem BioAssay AID330 (DTP/NCI, 2004)
Values joined by “and” are separate entries in the source; they are usually repeats but may differ in a detail not shown here. Equal entries are not always repeated. Inconclusive results and toxic doses are left out. The calls were made as follows: active = survival T/C of 150% or more; inactive = T/C below 125% in these data.

Test system: P388 leukemia ip, CD2F1 mice, survival T/C
Assay: NCI In Vivo Anticancer Drug Screen. Data for tumor model P388 Leukemia (intraperitoneal) in CD2F1 (CDF1) mice
Settings: endpoint: median survival time, higher = longer survival
Outline: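 Mice carrying the transplanted tumor received test compound or vehicle. Survival was recorded in each group, and the value is the treated-group measurement divided by that of the vehicle-treated control group.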

[1] = dose: 50.0 mg/kg/injection, schedule: Q01DX009 (ip), vehicle: saline with Tween-80
[2] = dose: 100.0 mg/kg/injection, schedule: Q01DX009 (ip), vehicle: saline with Tween-80
[3] = dose: 200.0 mg/kg/injection, schedule: Q01DX009 (ip), vehicle: saline with Tween-80
[4] = dose: 200.0 mg/kg/injection, schedule: Q04DX003 (ip), vehicle: saline with Tween-80
[5] = dose: 60.0 mg/kg/injection, schedule: Q01DX005 (ip), vehicle: saline with Tween-80
[6] = dose: 120.0 mg/kg/injection, schedule: Q01DX005 (ip), vehicle: saline with Tween-80
[7] = dose: 240.0 mg/kg/injection, schedule: Q01DX005 (ip), vehicle: saline with Tween-80

Measured: T/C

CCCCCCCCSCCN(CC)CC
inactive: dose: 50.0 mg/kg/injection, schedule: Q01DX005 (ip), vehicle: saline 104 % of control | dose: 100.0 mg/kg/injection, schedule: Q01DX005 (ip), vehicle: saline 103 % of control | dose: 200.0 mg/kg/injection, schedule: Q01DX005 (ip), vehicle: saline 95 % of control

CC12OC3(C)c4ccccc4OP3(c3ccccc3)(Oc3ccccc31)O2 (stereo not drawn)
inactive: [1] 99 % of control | [2] 97 % of control | [3] 88 % of control

CC12C(=O)C=CCC1=CCC1C2CCC2(O)C(=O)OC3(C)C4CC5(C)C(COC16OC23C5C6=O)C(=O)O4 (stereo not drawn)
inactive: dose: 25.0 mg/kg/injection, schedule: Q01DX009 (ip), vehicle: saline with Tween-80 96 % of control | [1] 110 % of control | [2] 120 % of control | dose: 150.0 mg/kg/injection, schedule: Q01DX009 (ip), vehicle: Klucel (hydroxypropylcellulose) (HPC) 121 % of control

CC1(C(=O)O)C2[Se]c3cc[se]c3C2C1(C)C(=O)O (stereo not drawn)
inactive: dose: 50.0 mg/kg/injection, schedule: Q01DX005 (ip), vehicle: saline with Tween-80 100 % of control | dose: 100.0 mg/kg/injection, schedule: Q01DX005 (ip), vehicle: saline with Tween-80 100 % of control | dose: 200.0 mg/kg/injection, schedule: Q01DX005 (ip), vehicle: saline with Tween-80 104 % of control

COc1ccc(-c2cc(=O)c3c(O)cc(O)cc3o2)cc1
inactive: [1] 90 % of control | [2] 90 % of control | dose: 100.0 mg/kg/injection, schedule: Q04DX003 (ip), vehicle: saline with Tween-80 90 % of control | [3] 110 % of control | [4] 90 % of control

CC(Sc1ncnc2[nH]ncc12)C(N)=O (stereo not drawn)
inactive: [5] 97 % of control | [6] 97 % of control | [7] 118 % of control

CCOC(=O)NC(C)(C)CN(C(=O)OCC)c1ccccc1
inactive: [2] 94 % of control | [3] 116 % of control | [4] 95 % of control | dose: 400.0 mg/kg/injection, schedule: Q01DX009 (ip), vehicle: saline with Tween-80 116 % of control | dose: 400.0 mg/kg/injection, schedule: Q04DX003 (ip), vehicle: saline with Tween-80 104 % of control

C=C1C(=O)OC2/C=C(\C)C(=O)CC3OC(C)(C)OC3(C)CC(OC(=O)/C(C)=C/C)C12 (stereo not drawn)
inactive: dose: 10.0 mg/kg/injection, schedule: Q01DX009 (ip), vehicle: saline with Tween-80 99 % of control | dose: 20.0 mg/kg/injection, schedule: Q01DX009 (ip), vehicle: saline with Tween-80 105 % of control | dose: 40.0 mg/kg/injection, schedule: Q01DX009 (ip), vehicle: saline with Tween-80 90 % of control

N#CC(Nc1ccccc1)c1ccc(Cl)cc1 (stereo not drawn)
inactive: [5] 94 % of control | [6] 94 % of control | [7] 104 % of control

COc1ccc(/C=N\NC(=O)C(=O)N/N=C\c2ccc(OC)cc2)cc1
inactive: dose: 12.5 mg/kg/injection, schedule: Q01DX009 (ip), vehicle: distilled water + alcohol 103 % of control | dose: 25.0 mg/kg/injection, schedule: Q01DX009 (ip), vehicle: distilled water + alcohol 100 % of control | dose: 50.0 mg/kg/injection, schedule: Q01DX009 (ip), vehicle: distilled water + alcohol 94 % of control | dose: 100.0 mg/kg/injection, schedule: Q01DX009 (ip), vehicle: distilled water + alcohol 89 % of control | dose: 200.0 mg/kg/injection, schedule: Q01DX009 (ip), vehicle: distilled water + alcohol 108 % of control

CC(C)NC(=O)OCc1c(COC(=O)NC(C)C)c(-c2ccc(Cl)c(Cl)c2)n2c1C[C@@H](OC(=O)CCC(=O)O)C2 (tested in a mixture with another compound)
inactive: dose: 12.5 mg/kg/injection, schedule: Q01DX005 (ip), vehicle: water 106 % of control and 107 % of control | dose: 25.0 mg/kg/injection, schedule: Q01DX005 (ip), vehicle: water 107 % of control and 108 % of control | dose: 50.0 mg/kg/injection, schedule: Q01DX005 (ip), vehicle: water 111 % of control and 123 % of control | dose: 50.0 mg/kg/injection, schedule: Q04DX002 (ip), vehicle: water 103 % of control | dose: 100.0 mg/kg/injection, schedule: Q04DX002 (ip), vehicle: water 111 % of control | dose: 200.0 mg/kg/injection, schedule: Q04DX002 (ip), vehicle: water 107 % of control
